Test results as given in article PMC6309939 (Pain, 2019).
pEC50: −log10 of the molar value.

Target: human α4β3δ GABAA receptor (β3 subunit) (Homo sapiens, UniProt P28472)
Experiment: two-electrode voltage clamp in oocytes, potentiation of GABA EC10 currents
Format: cell-based

Sequence of human α4β3δ GABAA receptor (β3 subunit) (P28472 26-473): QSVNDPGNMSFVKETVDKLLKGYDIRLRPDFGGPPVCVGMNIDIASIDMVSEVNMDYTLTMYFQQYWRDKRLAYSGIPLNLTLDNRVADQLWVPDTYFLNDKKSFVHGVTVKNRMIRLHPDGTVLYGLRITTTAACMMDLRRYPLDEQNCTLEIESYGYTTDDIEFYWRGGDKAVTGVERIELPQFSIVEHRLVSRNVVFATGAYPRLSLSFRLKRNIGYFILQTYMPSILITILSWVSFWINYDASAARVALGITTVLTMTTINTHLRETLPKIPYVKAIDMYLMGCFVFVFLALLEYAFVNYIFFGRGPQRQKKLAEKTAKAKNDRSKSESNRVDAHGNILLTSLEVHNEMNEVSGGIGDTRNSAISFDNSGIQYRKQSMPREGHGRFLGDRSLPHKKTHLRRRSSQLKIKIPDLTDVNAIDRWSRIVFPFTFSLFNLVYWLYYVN
Sequence of human α4β3δ GABAA receptor (β3 subunit) (P48169 36-554 partner): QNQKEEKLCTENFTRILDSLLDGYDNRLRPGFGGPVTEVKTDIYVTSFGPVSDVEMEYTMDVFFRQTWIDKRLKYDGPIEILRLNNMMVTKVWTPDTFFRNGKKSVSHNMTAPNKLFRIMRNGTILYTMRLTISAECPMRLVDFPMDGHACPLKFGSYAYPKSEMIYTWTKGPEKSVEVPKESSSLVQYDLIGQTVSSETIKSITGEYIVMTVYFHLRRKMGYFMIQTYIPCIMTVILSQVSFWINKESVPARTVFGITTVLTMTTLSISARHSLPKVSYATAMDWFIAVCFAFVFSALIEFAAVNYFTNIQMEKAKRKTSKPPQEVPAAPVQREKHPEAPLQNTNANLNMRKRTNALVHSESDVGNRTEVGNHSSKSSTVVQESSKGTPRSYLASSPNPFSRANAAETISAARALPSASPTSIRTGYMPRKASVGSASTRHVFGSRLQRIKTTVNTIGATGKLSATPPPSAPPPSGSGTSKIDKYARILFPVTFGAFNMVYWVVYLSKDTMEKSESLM
Sequence of human α4β3δ GABAA receptor (β3 subunit) (O14764 25-452 partner): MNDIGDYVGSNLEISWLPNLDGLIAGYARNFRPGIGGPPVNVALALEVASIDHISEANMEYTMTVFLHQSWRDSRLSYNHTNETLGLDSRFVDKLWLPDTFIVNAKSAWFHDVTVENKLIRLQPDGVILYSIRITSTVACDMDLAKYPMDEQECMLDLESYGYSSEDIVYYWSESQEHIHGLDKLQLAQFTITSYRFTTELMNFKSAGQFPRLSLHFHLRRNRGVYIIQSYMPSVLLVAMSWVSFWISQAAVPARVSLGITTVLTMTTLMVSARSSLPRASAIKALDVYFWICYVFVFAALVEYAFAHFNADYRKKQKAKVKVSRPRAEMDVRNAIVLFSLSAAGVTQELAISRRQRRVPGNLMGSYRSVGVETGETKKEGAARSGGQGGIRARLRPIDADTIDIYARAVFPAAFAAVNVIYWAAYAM

Work on `CC(=O)[C@H]1CC[C@H]2[C@@H]3CC[C@H]4C[C@H](O)CC[C@]4(C)[C@H]3CC[C@]12C` [ALLO, allopregnanolone] yielded a pEC50 of 6.28.
